Data as given in PMC2574903 (Biochimica et biophysica acta, 2008).
Where two headings read alike, the source gives them in different places.

Columns and labels:
CES1 [1] = biological target: T1, CES1 (Homo sapiens, UniProt P23141); assay: Hydrolysis of 4-methylumbelliferyl oleate; type: biochemical
T1 sequence (P23141 18-567): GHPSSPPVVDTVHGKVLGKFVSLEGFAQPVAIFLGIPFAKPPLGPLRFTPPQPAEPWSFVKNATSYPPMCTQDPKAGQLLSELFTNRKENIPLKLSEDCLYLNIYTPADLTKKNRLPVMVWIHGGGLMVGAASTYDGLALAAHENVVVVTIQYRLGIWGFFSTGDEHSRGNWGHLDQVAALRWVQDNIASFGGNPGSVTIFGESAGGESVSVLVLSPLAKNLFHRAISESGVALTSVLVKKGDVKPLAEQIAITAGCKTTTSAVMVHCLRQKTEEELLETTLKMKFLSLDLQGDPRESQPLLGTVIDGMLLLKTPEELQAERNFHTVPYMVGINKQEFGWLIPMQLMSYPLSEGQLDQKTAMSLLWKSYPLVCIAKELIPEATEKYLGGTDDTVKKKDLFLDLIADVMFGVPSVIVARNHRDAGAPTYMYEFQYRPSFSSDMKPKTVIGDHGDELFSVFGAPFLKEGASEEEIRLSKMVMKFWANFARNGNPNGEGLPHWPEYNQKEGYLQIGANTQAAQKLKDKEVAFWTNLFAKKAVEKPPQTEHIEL

THP-1 macrophages = assay: Cholesteryl ester retention in cholesterol-loaded THP-1 macrophages; type: cell-based, human; conditions: for Total cellular cholesterol content of macrophages / Free cholesterol levels: 50 μM benzil or 10 μM paraoxon, 48-h efflux period; for Free cholesterol levels: vs vehicle
[2] = test system: intracellular carboxylesterase activity in U373MG cells; conditions: cited from earlier work
[3] = biological target: T2, carboxylesterase activity in THP-1 macrophages (Homo sapiens, UniProt P23141); type: cell-based
T2 sequence (P23141 18-567): T1 sequence (P23141 18-567)

porcine pancreatic CEL = biological target: T3, porcine pancreatic CEL (Sus scrofa, UniProt A0A286ZKB1); assay: Hydrolysis of 4-MUBO by porcine bile-salt stimulated cholesterol esterase; type: biochemical; conditions: 4-MUBO substrate; no bile salts added; Supplementary Fig. 1
T3 sequence (A0A286ZKB1 1-682): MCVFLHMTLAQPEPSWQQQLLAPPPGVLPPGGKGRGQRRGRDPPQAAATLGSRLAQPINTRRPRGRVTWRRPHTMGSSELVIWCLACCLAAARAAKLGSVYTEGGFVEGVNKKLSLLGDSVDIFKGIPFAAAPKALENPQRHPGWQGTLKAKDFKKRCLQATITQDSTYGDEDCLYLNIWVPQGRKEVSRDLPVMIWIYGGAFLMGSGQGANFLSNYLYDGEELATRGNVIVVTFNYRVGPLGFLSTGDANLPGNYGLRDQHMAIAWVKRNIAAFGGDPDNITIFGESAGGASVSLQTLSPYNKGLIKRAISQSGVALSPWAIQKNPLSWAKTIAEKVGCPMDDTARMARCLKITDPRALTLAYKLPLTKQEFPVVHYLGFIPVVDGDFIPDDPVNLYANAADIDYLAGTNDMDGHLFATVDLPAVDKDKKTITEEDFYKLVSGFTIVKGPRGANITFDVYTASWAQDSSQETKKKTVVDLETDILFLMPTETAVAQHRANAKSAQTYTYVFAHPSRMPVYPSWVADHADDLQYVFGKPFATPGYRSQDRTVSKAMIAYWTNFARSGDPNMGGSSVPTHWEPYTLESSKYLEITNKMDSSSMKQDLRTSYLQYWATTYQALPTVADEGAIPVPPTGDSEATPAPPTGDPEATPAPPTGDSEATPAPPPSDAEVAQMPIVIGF

[4] = biological target: T4, carboxylesterase activity of human THP-1 cell lysates (CES1) (Homo sapiens, UniProt P23141); type: biochemical; conditions: para-nitrophenyl valerate
T4 sequence (P23141 18-567): T1 sequence (P23141 18-567)

[5] = cited from earlier work
THP-1 cells = assay: Cell viability by Trypan Blue exclusion after oxon exposure; type: cell-based, human; conditions: 24 h, concentrations of oxon used, data not shown
[6] = biological target: T5, carboxylesterase activity (CES1) in intact THP-1 cells (Homo sapiens, UniProt P23141); assay: Carboxylesterase activity after 24-h treatment of intact THP-1 monocytes; type: cell-based; conditions: for Inhibition of carboxylesterase activity in intact THP-1 monocytes: 24 h treatment of intact cells, activity measured in lysates; for Relative effectiveness at inhibiting carboxylesterase activity in intact cells: 24 h treatment, comparison of the three oxons
T5 sequence (P23141 18-567): T1 sequence (P23141 18-567)

[7] = test system: lipolytic activity of THP-1 cell lysates; assay: Hydrolysis of 4-MUBO by THP-1 cell lysates; type: biochemical, human; conditions: paraoxon up to 10 μM; Supplementary Fig. 2
CES1 [8] = biological target: T1, CES1; type: binding
CES1 protein expression = assay: Western blot of CES1 protein in paraoxon-treated THP-1 cells; type: cell-based, human; conditions: 10 μM paraoxon 24 h
[9] = test system: cholesteryl ester hydrolase activity in human THP1 cell lysate; assay: Hydrolysis of cholesteryl [1-14C]oleate; type: biochemical; conditions: 10 μM paraoxon for 10 min before 75 μM cholesteryl [1-14C]oleate

O=C(C(=O)c1ccccc1)c1ccccc1 [Benzil, diphenylethane-1,2-dione]
Inhibition of lipase activity of CES1 (CES1 [1]): can be inhibited
Increase in intracellular cholesteryl ester levels (THP-1 macrophages; 50 μM benzil during 48-h cholesterol efflux period): > 3 fold
Total cellular cholesterol content of macrophages (THP-1 macrophages): did not significantly change
Free cholesterol levels (THP-1 macrophages): similar
Inhibition of intracellular carboxylesterase activity ([2]; U373MG cells transfected with plasmids containing mammalian CES cDNA): effective inhibitor
Cell permeability ([2]; U373MG cells): cell-permeable
Cytotoxicity ([2]; U373MG cells): non-cytotoxic
Carboxylesterase activity in cell lysate from treated macrophages [3]: not significantly inhibited
Inhibition of CEL (porcine pancreatic CEL): does not inhibit

CCOP(=O)(OCC)Oc1nc(Cl)c(Cl)cc1Cl [Chlorpyrifos oxon]
Inhibition of carboxylesterase activity in cell lysates [4]: inhibited carboxylesterase activity in cell lysates in a concentration-dependent manner
Lipophilicity rank among the three oxons [5]: most lipophilic
Overall cell viability (THP-1 cells): did not affect overall cell viability
Inhibition of carboxylesterase activity in intact THP-1 monocytes [6]: inhibited by each oxon in a dose-dependent manner
Relative effectiveness at inhibiting carboxylesterase activity in intact cells [6]: least effective

COP(=O)(OC)Oc1ccc([N+](=O)[O-])cc1 [Methyl paraoxon]
Inhibition of carboxylesterase activity in cell lysates [4]: inhibited carboxylesterase activity in cell lysates in a concentration-dependent manner
Lipophilicity rank among the three oxons [5]: least lipophilic
Overall cell viability (THP-1 cells): did not affect overall cell viability
Inhibition of carboxylesterase activity in intact THP-1 monocytes [6]: inhibited by each oxon in a dose-dependent manner

CCOP(=O)(OCC)Oc1ccc([N+](=O)[O-])cc1 [Paraoxon]
Inhibition of lipolytic activity of THP-1 cell lysates toward 4-MUBO [7]: no significant inhibiton of lipase activity
Inhibition of lipase activity of CES1 (CES1 [1]; 4-MUBO substrate, Supplementary Fig. 1): can be inhibited
Paraoxon concentrations that completely inhibited FP-biotin labeling of CES1 (CES1 [8]; lysate 1 mg/ml pre-treated 15 min at 37°C, then 2 μM FP-biotin 1 h): > 1 nM
Effect on FP-biotin labeling of CES1 (CES1 [8]; pre-treatment with paraoxon at 0.01 nM): did not prevent labeling
Amount of CES1 protein compared to control (vehicle) treated cells (CES1 protein expression): no difference
Inhibition of carboxylesterase activity in cell lysates [4]: inhibited carboxylesterase activity in cell lysates in a concentration-dependent manner
Intracellular cholesteryl ester retention (THP-1 macrophages; 10 μM paraoxon during 48-h cholesterol efflux): significant increase
Total cellular cholesterol content of macrophages (THP-1 macrophages): did not significantly change
Free cholesterol levels (THP-1 macrophages): modest but significant reduction
Inhibition of carboxylesterase activity in cell lysate from treated macrophages ([3]; 10 μM paraoxon, compared to control cells, p≤0.05): 81%
Reduction of CEH activity of THP1 cell lysates [9]: 23%
Overall cell viability (THP-1 cells): did not affect overall cell viability
Inhibition of CEL (porcine pancreatic CEL): very sensitive
Inhibition of carboxylesterase activity in intact THP-1 monocytes [6]: inhibited by each oxon in a dose-dependent manner
Relative effectiveness at inhibiting carboxylesterase activity in intact cells [6]: most effective
CES1 activity on native PAGE gels ([6]; intact cells, 10 μM paraoxon 24 h, α,β-naphthyl acetate stain): markedly inhibited
